The values below come from patent publication US8496927B2, “CD20 negatively converted B-cell malignant lymphoma cell line and utilization thereof” (National University Corporation Nagoya University, priority 2006, dated 2013).

One data set relates to Raji cells. Kind of data set: Rituximab resistance test: number of living cells after culture with rituximab. Format: cell-based. To be noted: rituximab 500 mg/ml, 10% FCS, 37° C. for 2 days. The procedure: (§1) Rituximab ([…]) was added to a PRMI1640 culture solution containing 10% FCS and the solution was cultured at 37° C. for 2 days, and the number of living cells was measured. Further, Raji cells were cultured under the same conditions (control group). […] Thus, it was confirmed that the RRBL1 cells indicates rituximab resistance in vitro.

Data set [1] deals with RRBL1 cells. In words: Number of living RRBL1 cells treated with Aza and TSA, cultured with or without rituximab. The data set is classed as cell-based, human. To be noted: cultured for 2 days. From the text:
RRBL1 cells (untreated group) and RRBL1 cells treated with Aza and TSA (treated group) were respectively cultured for 2 days in the absence of rituximab (●, ▪) or in the presence of rituximab (♦, ▴), and the number of living cells were compared (FIG. 8C).

The test system of the next data set is CD20 positive lymphoma. To be noted: Non-patent document 10; cited from earlier work.
Data set [2] has as its system RRBL1 cells. Kind of data set: Rituximab resistance test: number of living cells after culture with rituximab. The data set is classed as cell-based, human. Particulars: rituximab 500 mg/ml, 10% FCS, 37° C. for 2 days. The procedure:
as §1

Data set [3] relates to CD20 positive malignant lymphoma. Kind of data set: Use experience of rituximab-containing chemotherapy, Hospital of Nagoya University. The data set is classed as in vivo, human. The procedure:
Cases of CD20 positive malignant lymphoma in which rituximab-containing chemotherapy was carried out in the Hospital of Nagoya University, School of Medicine are shown. The rituximab-containing chemotherapies were performed in 124 cases in about 5 years from […] to 2006, and in 36 cases (29%) among 124 cases, recurrence or relapse were observed. In 19 cases, about half of these cases, tissue biopsies were carried out again, and in 5 cases (26.3% among the cases subjected to rebiopsy), negative conversion of CD20 expression was confirmed. Prognoses of the cases where CD20 was negatively converted were extremely bad, and patients in all the cases died within 1 year after the confirmation of negative conversion.
In about 5 years from September 2001, CD20 positive malignant lymphoma cases subjected to chemotherapy including rituximab in this facility was 124 cases (FIG. 13), and 36 cases (29.0%) in the 124 cases were recurred or relapsed.

For another data set, the system named is CD20 mRNA. Kind of data set: CD20 mRNA expression in RRBL1 cells by RT-PCR. Format: cell-based, human. To be noted: for induction of CD20 mRNA: added to RRBL1, analyzed with elapse of time (summary). The procedure:
(§2) 5-aza-2′-deoxycytidine (SIGMA, hereinafter abbreviated as “Aza”) was injected to a culture solution of RRBL1 cells, and the cells were washed after 24 hours. After culturing for further 2 days, RNA and the whole-cell lysate was extracted from the cells, and subjected to analyses by RT-PCR and western blotting. As a result, CD20 mRNA expression increased after the Aza treatment (FIG. 7A, RT, lane 2). In the western blotting analysis, the CD20 protein expression was observed after the Aza treatment (FIG. 7A, IB lane 2).
(§3) Subsequently, changes with time regarding CD20 mRNA expression and CD20 protein expression were examined (FIG. 7B) Aza was injected to a culture solution on day 0, and cultured at 37° C. for 24 hours (day 1). Then, the cells were washed and further cultured for 1 to 6 days (day 2 to day 7). RNA and protein were extracted from the cells after culturing, and subjected to analyses by western blotting (using anti-CD20 antibody, anti-IRF4 antibody, anti-PU.1 antibody, anti-DNMT1 antibody, and […]) and RT-PCR.

The subject of a further data set is CD20 protein. Kind of data set: CD20 protein expression in RRBL1 cells by western blotting. The data set is classed as cell-based, human. Particulars: for induction of CD20 protein: added to RRBL1, analyzed with elapse of time (summary). The procedure: as §2, §3
Aza and TSA (Trichostatin: histone deacetylase inhibitor) were injected singly or in combination to a culture supernatant of RRBL1 cells. The cells were washed after one day from Aza injection. After further cultured for 2 days, protein was extracted from the cells. In the TSA injected group, protein was extracted from the cells at the point of 24 hours from TSA injection. For the group injected in combination use, Aza was first injected and cultured for 1 day. The cells after washed were cultured for 1 day, then TSA was injected thereto, and further, the cells were dissolved after the elapse of one day to extract protein. Thus obtained each sample was subjected to SDS-PAGE, and western blotting using an anti-CD20 antibody and an anti-GAPDH antibody was then performed.
Background: Immunoblotting shows a protein as a band on a membrane.

The subject of data set [4] is DNMT1 (DNA methyltransferase 1). In words: DNMT1 expression in RRBL1 cells by western blotting. Format: cell-based, human. Particulars: day 1 after Aza injection. The procedure:
as §3
(§4) IRF4 and Pu.1 are transcriptional factors that have been reported to bind to a CD20 gene promoter. […] DNMT1 (DNA methyltransferase 1) has reported to be decomposed by Aza.

For the next data set, the system named is IRF4 and Pu.1. Kind of data set: IRF4 and Pu.1 expression in RRBL1 cells by western blotting. Particulars: time course after Aza injection. Format: cell-based, human. The procedure:
as §3, §4

[5] abbreviates: RRBL1 cells, Aza on day 0, washed day 1, cultured to day 7.
Setting [6] is: RRBL1 cells, washed after 24 hours, cultured further 2 days.

As to rituximab, the “proliferation (number of living cells)” value with Raji cells was “significantly repressed”; with RRBL1 cells [2], “repression of proliferation was not observed”. The “proliferation (number of living cells) in the presence of rituximab” value in the data set on RRBL1 cells [1] was “significantly inhibited”. Also, the “patients showing rituximab resistance” value in the data set with CD20 positive lymphoma is given as 5 out of 48. In data set [3] (5 of 19 recurred/relapsed cases subjected to rebiopsy, FCM and immunostaining), the “cases with negative conversion (disappearance or decrease) of CD20 expression” value was found to be 26.3%. In addition, in [3] (36 of 124 cases given rituximab-containing chemotherapy, about 5 years from 2001), the “cases recurred or relapsed” value turned out to be 29%.
With `CC(/C=C/C(=O)NO)=C\[C@@H](C)C(=O)c1ccc(N(C)C)cc1` [TSA, Trichostatin A], in the data set on CD20 mRNA, the “induction of CD20 mRNA” value is “possible”. Moreover, the “induction of CD20 protein” value with CD20 protein was “possible”.
In the case of `Nc1ncn([C@H]2C[C@H](O)[C@@H](CO)O2)c(=O)n1` [Aza, 5-aza-2′-deoxycytidine], the “CD20 mRNA expression, change with time” value in the data set with CD20 mRNA (setting [5]) is reported as “the same tendency as the CD20 protein expression”. Moreover, the “CD20 mRNA expression (RT-PCR)” value with CD20 mRNA (setting [6]) is reported as “increased”. Further, the “induction of CD20 mRNA” value in the data set with CD20 mRNA is listed as “possible”. In addition, the “culturing time by which CD20 expression is induced” value with CD20 protein (RRBL1) is on record as 1 to 7 days. In addition, in the data set with CD20 protein (setting [5]), the “CD20 protein expression, change with time” value is “increased from day 1” and the “day on which CD20 protein expression level reached peak” value was found to be 3 days. In the data set with CD20 protein (setting [6]), the “CD20 protein expression (western blotting)” value is “observed”. Besides, in the data set with CD20 protein, the “induction of CD20 protein” value is “possible”. The DNMT1 expression entry in data set [4] was “significant decrease”. Also, the “IRF4 and Pu.1 expression” value in the data set on IRF4 and Pu.1 was “tendency of temporal increase”.
